Measured values from PubChem BioAssay (NCI).
Several values for one entry are separate records, joined by “and”; a condition that tells them apart may be missing. Equal values may be shown once.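 Step 1: Grow cells in 96-well plates. Step 2: Expose to compound for 48 hours at 5 concentrations. Step 3: Interpolate endpoints linearly; if unreached, use highest concentration. GI50 marks 50% less growth. TGI denotes the concentration required for complete inhibition of growth.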

Tests used:
Assay in all cases: NCI tumour cell line growth inhibition, 48 h
[1] = test system: 786-0 renal
[2] = test system: A498 renal
[3] = test system: CAKI-1 renal
[4] = test system: DU-145 prostate
[5] = test system: HCT-15 colon
[6] = test system: IGROV1 ovarian
[7] = test system: NCI-H460 lung
[8] = test system: OVCAR-3 ovarian
[9] = test system: PC-3 prostate
[10] = test system: SNB-19 CNS

`O=C(O)CCc1nc(-c2ccccc2)c(-c2ccccc2)o1` was tested. Which TGI [1] did it give?
The TGI was over 100 µM.

What about the TGI [2] of the same compound?
Its TGI is over 100 µM.

And the TGI [3]?
Its TGI is over 100 µM.

And the TGI [4]?
Its TGI is over 100 µM.

And the TGI [5]?
Its TGI is over 100 µM.

And the TGI [6]?
Its TGI is over 100 µM.

And the TGI [7]?
The TGI was over 100 µM.

And the TGI [8]?
The TGI was over 100 µM.

And the TGI [9]?
Its TGI is over 100 µM.

And the TGI [10]?
The TGI was over 100 µM.

What does the source list for `CCCCc1oc2ccccc2c1C(=O)c1cc(I)c(OCCN(CC)CC)c(I)c1`?
GI50 [1]: 1.64 µM; TGI [1]: 3.31 µM; TGI [2]: 14.3 µM; GI50 [3]: 2.51 µM; TGI [3]: 10.7 µM and 15.5 µM; GI50 [4]: 5.28 µM; TGI [4]: 17.8 µM; GI50 [5]: 2.06 µM; TGI [5]: 4.68 µM and 8.21 µM; GI50 [6]: 4.66 µM; TGI [7]: 3.87 µM; GI50 [8]: 3.69 µM; TGI [8]: 14.7 µM and 16.9 µM; GI50 [9]: 1.95 µM; TGI [9]: 8.91 µM; GI50 [10]: 2.04 µM; TGI [10]: 5.35 µM and 18.7 µM

How did the TGI [1] turn out when `c1ccc([P+](CCC[P+](c2ccccc2)(c2ccccc2)c2ccccc2)(c2ccccc2)c2ccccc2)cc1` was run?
The TGI was over 100 µM.

What about the GI50 [2] of the same compound?
The GI50 was 14.6 µM.

And the TGI [2]?
The TGI was over 100 µM.

What about the TGI [3] of the same compound?
Its TGI is over 100 µM.

And the GI50 [4]?
The GI50 was 19.9 µM.

And the TGI [4]?
Its TGI is over 100 µM.

And the GI50 [5]?
Its GI50 is over 100 µM.

And the TGI [5]?
Its TGI is over 100 µM.

What about the GI50 [6] of the same compound?
Its GI50 is 14 µM.

What about the TGI [6] of the same compound?
Its TGI is over 100 µM.

What about the GI50 [7] of the same compound?
The GI50 was 9.03 µM.

What about the TGI [7] of the same compound?
Its TGI is over 100 µM.

What about the GI50 [8] of the same compound?
The GI50 was 4.41 µM.

What about the TGI [8] of the same compound?
Its TGI is 83.7 µM and 35.5 µM.

And the GI50 [9]?
The GI50 was 3.26 µM.

And the TGI [9]?
Its TGI is 81.1 µM.

What about the GI50 [10] of the same compound?
The GI50 was 8.95 µM.

What about the TGI [10] of the same compound?
The TGI was over 100 µM.

What does the source list for `Cc1[nH]ccc2cc3nc4ccccc4c3cc12`?
GI50 [1]: 3.33 µM; TGI [1]: 13.8 µM; GI50 [2]: 0.421 µM; TGI [2]: 2.15 µM; GI50 [3]: 2.38 µM; TGI [3]: 10.8 µM; GI50 [4]: 2.18 µM; TGI [4]: 5.83 µM; GI50 [5]: 1.84 µM; TGI [5]: 5.9 µM; GI50 [6]: 3.65 µM; TGI [6]: 15.2 µM; GI50 [7]: 1.39 µM; TGI [7]: 3.52 µM; GI50 [8]: 3.04 µM; TGI [8]: 10.7 µM; GI50 [9]: 2.46 µM; TGI [9]: 11.7 µM; GI50 [10]: 5.65 µM; TGI [10]: 19.6 µM

Which TGI [1] does the source give for `Oc1oc(-c2ccccc2)nc1/C=C1/C=NN=N1` here?
Its TGI is over 100 µM.

And the TGI [2]?
Its TGI is over 100 µM.

What about the TGI [3] of the same compound?
Its TGI is over 100 µM.

And the TGI [4]?
The TGI was over 100 µM.

What about the TGI [5] of the same compound?
Its TGI is over 100 µM.

What about the TGI [6] of the same compound?
Its TGI is over 100 µM.

And the TGI [7]?
The TGI was over 100 µM.

And the TGI [8]?
The TGI was over 100 µM.

What about the TGI [9] of the same compound?
The TGI was over 100 µM.

And the TGI [10]?
The TGI was over 100 µM.

Which results are given for `CCN1CCN(c2cc(C)nc(NCc3cc(Nc4ccnc5cc(Cl)ccc45)ccc3F)n2)CC1`?
GI50 [1]: 2.07 µM; TGI [1]: 5.88 µM; GI50 [2]: 1.89 µM; TGI [2]: 8.05 µM; GI50 [3]: 2.82 µM; TGI [3]: 17.1 µM; GI50 [4]: 2.74 µM; TGI [4]: 42.3 µM; GI50 [5]: 2.19 µM; TGI [5]: 11.7 µM; GI50 [6]: 3.31 µM; TGI [6]: 34.1 µM; GI50 [7]: 2.83 µM; TGI [7]: 12.1 µM; GI50 [8]: 2.94 µM; TGI [8]: 11.8 µM; GI50 [9]: 5.02 µM; TGI [9]: 69.5 µM; GI50 [10]: 3.71 µM; TGI [10]: > 100 µM

Which GI50 [1] does the source give for `O=C1C(Nc2cccc(O)c2)=C(Sc2ccc(Cl)cc2)C(=O)N1Cc1ccccc1` here?
The GI50 was 17.8 µM.

What about the TGI [1] of the same compound?
Its TGI is 50 µM.

And the GI50 [2]?
The GI50 was 10.3 µM.

And the TGI [2]?
Its TGI is 25.6 µM.

What about the GI50 [3] of the same compound?
The GI50 was 18.6 µM.

And the TGI [3]?
The TGI was 38.9 µM.

What about the GI50 [4] of the same compound?
The GI50 was 12 µM.

What about the TGI [4] of the same compound?
Its TGI is 33.3 µM.

And the GI50 [5]?
The GI50 was 10.2 µM.

What about the TGI [5] of the same compound?
The TGI was 33.9 µM.

What about the GI50 [6] of the same compound?
The GI50 was 26.8 µM.

What about the TGI [6] of the same compound?
Its TGI is over 100 µM.

And the GI50 [7]?
The GI50 was 5.61 µM.

And the TGI [7]?
Its TGI is over 100 µM.

And the GI50 [8]?
The GI50 was 10.6 µM.

And the TGI [8]?
Its TGI is 28.2 µM.

And the GI50 [9]?
Its GI50 is 4.66 µM.

What about the TGI [9] of the same compound?
Its TGI is 24.7 µM.

What about the GI50 [10] of the same compound?
Its GI50 is 25.1 µM.

What about the TGI [10] of the same compound?
Its TGI is over 100 µM.
